According to article PMC5107250, “Identification of Novel Inhibitors against Coactivator Associated Arginine Methyltransferase 1 Based on Virtual Screening and Biological Assays” (BioMed Research International, 2016):

Tests used:
CARM1 = target: T1, CARM1 (Homo sapiens, UniProt Q86X55); assay: AlphaLISA CARM1 enzyme inhibition assay; type: biochemical; settings: biotinylated H3 peptide 50 nM, SAM 300 nM, enzyme 0.1 nM, in duplicate
T1 sequence (Q86X55 1-608): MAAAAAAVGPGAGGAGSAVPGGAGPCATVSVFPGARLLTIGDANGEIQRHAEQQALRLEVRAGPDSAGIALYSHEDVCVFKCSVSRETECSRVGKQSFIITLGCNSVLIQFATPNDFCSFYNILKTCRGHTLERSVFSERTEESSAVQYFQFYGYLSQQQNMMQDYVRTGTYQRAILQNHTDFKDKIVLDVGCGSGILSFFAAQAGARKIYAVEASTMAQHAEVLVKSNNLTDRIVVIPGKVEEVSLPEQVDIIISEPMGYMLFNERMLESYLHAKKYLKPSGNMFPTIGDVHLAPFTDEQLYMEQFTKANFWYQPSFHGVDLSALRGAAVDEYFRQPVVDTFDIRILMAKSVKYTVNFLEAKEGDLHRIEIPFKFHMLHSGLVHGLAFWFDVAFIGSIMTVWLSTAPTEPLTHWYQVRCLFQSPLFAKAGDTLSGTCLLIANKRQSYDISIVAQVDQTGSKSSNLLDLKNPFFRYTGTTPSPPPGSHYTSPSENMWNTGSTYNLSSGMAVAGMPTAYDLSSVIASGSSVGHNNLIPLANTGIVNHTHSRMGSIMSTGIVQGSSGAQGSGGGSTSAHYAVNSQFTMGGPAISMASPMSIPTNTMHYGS
Protocol: The enzymatic inhibitory activities of compounds were measured by the AlphaLISA assay provided by Shanghai ChemPartner Co., Ltd. The compounds selected from virtual screening were transferred to the assay plate (white opaque OptiPlate-384, PerkinElmer). 5 μL of enzyme solution (final concentration was 0.1 nM) or pH 8.0 tris-based assay buffer (for Min well) was added to the assay plate and then centrifuged at 1000 rpm for 1 min. Afterwards, the assay plate was incubated for 15 min at room temperature (RT). Then 5 μL of biotinylated H3 peptide/SAM mix (final concentrations were 50 nM and 300 nM, resp.) was added to the assay plate, which was covered with TopSeal-Afilm and incubated for 1 h at RT after centrifuging at 1000 rpm for 1 min (DMSO final concentration 1%). Next, 5 μL of acceptor beads (final concentration was 10 μg/mL) was added to stop the enzymatic reaction. […] Finally, the mixtures were incubated for 30 min at RT, and the signal was read in alpha mode using EnVision readers. The IC50 values were calculated by fit inhibition rates under different concentrations into GraphPad Prism 5.0 software. […] The end point was read in alpha mode using EnVision readers, and IC50 values were calculated in GraphPad Prism 5.0 software.

PRMT1 = PRMT1 (Homo sapiens, UniProt Q99873); assay: In vitro enzyme selectivity assay, PRMT1; type: biochemical; settings: in duplicate
Chain of PRMT1 (Q99873 whole entry, species assumed): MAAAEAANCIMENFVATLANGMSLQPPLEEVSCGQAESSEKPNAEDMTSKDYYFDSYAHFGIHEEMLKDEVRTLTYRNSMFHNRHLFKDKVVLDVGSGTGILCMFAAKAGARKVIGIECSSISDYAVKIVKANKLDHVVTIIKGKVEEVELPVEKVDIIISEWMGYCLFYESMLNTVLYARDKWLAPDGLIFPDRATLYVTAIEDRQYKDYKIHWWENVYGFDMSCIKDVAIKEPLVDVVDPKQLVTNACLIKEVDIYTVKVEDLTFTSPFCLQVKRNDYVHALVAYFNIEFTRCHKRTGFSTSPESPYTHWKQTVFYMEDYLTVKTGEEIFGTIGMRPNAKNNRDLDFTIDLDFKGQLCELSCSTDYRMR
Protocol: (§1) The enzymatic inhibitory activities of compounds were measured by the AlphaLISA assay provided by Shanghai ChemPartner Co., Ltd. The compounds selected from virtual screening were transferred to the assay plate (white opaque OptiPlate-384, PerkinElmer). 5 μL of enzyme solution (final concentration was 0.1 nM) or pH 8.0 tris-based assay buffer (for Min well) was added to the assay plate and then centrifuged at 1000 rpm for 1 min. Afterwards, the assay plate was incubated for 15 min at room temperature (RT). Then 5 μL of biotinylated H3 peptide/SAM mix (final concentrations were 50 nM and 300 nM, resp.) was added to the assay plate, which was covered with TopSeal-Afilm and incubated for 1 h at RT after centrifuging at 1000 rpm for 1 min (DMSO final concentration 1%). Next, 5 μL of acceptor beads (final concentration was 10 μg/mL) was added to stop the enzymatic reaction. After incubating at room temperature for 60 min, 10 μL of donor beads was added (final concentration was 10 μg/mL) in subdued light and then centrifuged at 1000 rpm for 1 min. Finally, the mixtures were incubated for 30 min at RT, and the signal was read in alpha mode using EnVision readers. The IC50 values were calculated by fit inhibition rates under different concentrations into GraphPad Prism 5.0 software. […]

PRMT6 = PRMT6 (Homo sapiens, UniProt Q96LA8); assay: In vitro enzyme selectivity assay, PRMT6; type: biochemical; settings: in duplicate
Chain of PRMT6 (Q96LA8 whole entry, species assumed): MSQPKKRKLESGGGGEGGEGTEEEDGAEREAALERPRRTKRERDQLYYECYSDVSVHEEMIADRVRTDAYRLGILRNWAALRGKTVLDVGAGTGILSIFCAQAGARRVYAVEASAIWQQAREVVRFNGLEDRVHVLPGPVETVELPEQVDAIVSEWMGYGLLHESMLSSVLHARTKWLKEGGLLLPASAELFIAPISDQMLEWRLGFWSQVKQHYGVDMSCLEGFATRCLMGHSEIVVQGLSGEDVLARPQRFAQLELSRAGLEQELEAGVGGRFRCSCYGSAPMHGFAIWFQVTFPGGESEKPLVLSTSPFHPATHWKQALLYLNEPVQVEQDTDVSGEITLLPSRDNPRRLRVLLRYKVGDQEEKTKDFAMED
Protocol: as §1

PRMT5 = PRMT5 (Homo sapiens, UniProt O14744); assay: In vitro enzyme selectivity assay, PRMT5; type: biochemical; settings: at a concentration of 50 μM; read-out: inhibition rate of PRMT5
Chain of PRMT5 (O14744 whole entry, species assumed): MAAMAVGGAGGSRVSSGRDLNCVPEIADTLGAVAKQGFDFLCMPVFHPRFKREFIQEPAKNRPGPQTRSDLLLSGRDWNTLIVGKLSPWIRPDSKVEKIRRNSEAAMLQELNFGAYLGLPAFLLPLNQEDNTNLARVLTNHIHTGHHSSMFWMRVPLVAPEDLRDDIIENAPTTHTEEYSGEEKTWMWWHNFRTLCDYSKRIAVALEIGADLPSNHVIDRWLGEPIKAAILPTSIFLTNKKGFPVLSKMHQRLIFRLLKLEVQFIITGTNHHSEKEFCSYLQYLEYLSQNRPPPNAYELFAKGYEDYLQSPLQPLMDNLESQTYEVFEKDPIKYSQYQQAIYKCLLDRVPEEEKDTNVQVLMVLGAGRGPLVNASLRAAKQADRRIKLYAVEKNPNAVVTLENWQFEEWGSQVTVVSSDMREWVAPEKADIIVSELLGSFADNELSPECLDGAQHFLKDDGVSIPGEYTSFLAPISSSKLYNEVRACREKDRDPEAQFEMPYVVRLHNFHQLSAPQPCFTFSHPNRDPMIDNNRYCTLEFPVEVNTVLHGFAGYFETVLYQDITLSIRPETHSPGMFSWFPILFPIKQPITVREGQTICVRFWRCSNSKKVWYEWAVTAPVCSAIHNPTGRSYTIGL
Chain of PRMT5 (Q9BQA1 whole entry partner, species assumed): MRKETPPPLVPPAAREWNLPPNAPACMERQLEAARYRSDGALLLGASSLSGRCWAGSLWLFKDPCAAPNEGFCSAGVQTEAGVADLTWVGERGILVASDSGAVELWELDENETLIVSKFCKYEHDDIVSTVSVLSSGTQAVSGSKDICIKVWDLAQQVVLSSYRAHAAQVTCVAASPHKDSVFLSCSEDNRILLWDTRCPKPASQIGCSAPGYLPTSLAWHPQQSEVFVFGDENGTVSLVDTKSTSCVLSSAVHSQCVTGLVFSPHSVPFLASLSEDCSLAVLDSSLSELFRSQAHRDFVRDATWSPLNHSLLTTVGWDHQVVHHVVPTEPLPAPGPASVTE
Protocol: as §1

HELA (cervical cancer) = assay: Cell viability (MTT) assay, HELA; type: cell-based, human; settings: 24 hrs, 48 hrs, 72 hrs, Figure 2
Protocol: (§2) The three cell lines, HELA, K562, and MCF7, were purchased from the American Type Culture Collection (ATCC). HELA, K562, and MCF7 were cultured in DMEM (Life Technologies) supplemented with 10% FBS. All of the cell lines were seeded into 96-well plates at an appropriate density and then treated with compounds of different concentrations or DMSO control. After 24 hrs, 48 hrs, and 72 hrs, cell viabilities were measured by the MTT assay. It has been reported that CARM1 was a potential target in many cancers; thus it is well accepted that inhibiting CARM1 could affect cancer cell proliferation. In this study, three human tumor cell lines including HELA (cervical cancer), K562 (myeloid leukemia), and MCF7 (breast cancer) were chosen to evaluate the cellular activity of the two compounds DC_C11 and DC_[…]. Sinefungin, a pan-PRMTs inhibitor which has the same scaffold as the cofactor SAM does, was evaluated for control experiment. […] In the three cell lines, DC_[…] presents better antiproliferative cellular activity, which is consistent with their inhibitory activity in vitro. Combined with the biological data in vitro, we confirmed that compounds DC_C11 and DC_[…] are cell membrane permeable, which presented promising activity both in vitro and in cellular environment.  Figure 2 Antiproliferative effect of DC_C11 and DC_[…] on several cancer cell lines. (a-c) Time-dependent and dose-dependent inhibitory effect of DC_C11 on HELA, K562, and MCF7 within 24 hrs, 48 hrs, and 72 hrs, respectively. (d-f) Time-dependent and dose-dependent inhibitory effect of DC_[…] on HELA, K562, and MCF7 within 24 hrs, 48 hrs, and 72 hrs, respectively. (g-i) Time-dependent and dose-dependent inhibitory effect of Sinefungin on HELA, K562, and MCF7 within 24 hrs, 48 hrs, and 72 hrs, respectively.

K562 (myeloid leukemia) = assay: Cell viability (MTT) assay, K562; type: cell-based, human; settings: 24 hrs, 48 hrs, 72 hrs, Figure 2
Protocol: as §2

MCF7 (breast cancer) = assay: Cell viability (MTT) assay, MCF7; type: cell-based, human; settings: 24 hrs, 48 hrs, 72 hrs, Figure 2
Protocol: as §2

| Compound | IC50 (CARM1) [µM] | IC50 (PRMT1) [µM] | IC50 (PRMT6) [µM] | inhibition at 50 µM (PRMT5) [%] | Antiproliferative effect on HELA (HELA (cervical cancer)) | Antiproliferative effect on K562 (K562 (myeloid leukemia)) | Antiproliferative effect on MCF7 (MCF7 (breast cancer)) |
| --- | --- | --- | --- | --- | --- | --- | --- |
| CCOC(=O)c1c2c3ccccc3c3ccccc3c2cc2[n+]1CCc1ccccc1-2 [DC_C66] | 1.8 | 21 | 47 | < 50 | inhibit proliferation of cancer cells in a time-dependent and dose-dependent manner | inhibit proliferation of cancer cells in a time-dependent and dose-dependent manner | inhibit proliferation of cancer cells in a time-dependent and dose-dependent manner |
| O=C(c1ccccc1)c1c2c(cc3sc4ccccc4[n+]13)-c1cccc3cccc-2c13 [DC_C11] | 15 | 36 | 41 | – | inhibit proliferation of cancer cells in a time-dependent and dose-dependent manner | inhibit proliferation of cancer cells in a time-dependent and dose-dependent manner | inhibit proliferation of cancer cells in a time-dependent and dose-dependent manner |
| Nc1ncnc2c1ncn2[C@@H]1O[C@H](C[C@@H](N)CC[C@H](N)C(=O)O)[C@@H](O)[C@H]1O [Sinefungin, reference compound] | – | – | – | – | weaker inhibitory activity | weaker inhibitory activity | weaker inhibitory activity |
